Measurements taken from patent US10730923B2 (Indiana University Research and Technology Corporation, priority 2011, dated 2020).
*1 amine or outer side, *2 acyl side, *3 side chain or, on linkers, in order; H or OH if unused. Where a SMILES comes first, the peptide text is derived from it. Where no end group is shown, it is not given here. Side-chain parts run from the residue outwards. [ ]: non-standard residue; d: D form. The star is where a group is joined. γGlu = O=C(O)[C@H](CCC(=O)[*:2])N[*:1]; Palmitoyl = CCCCCCCCCCCCCCCC(=O)*; Aib = CC(C)(N)C(=O)O

Key:
Format in all cases: in vivo
[1] = diet-induced obese (DIO) mice, daily dosing for nine days: body weight and ambient glucose
Method: Mice were administered a vehicle control or a dose of a peptide daily for nine days. The peptides tested in this study included a peptide of SEQ ID NO: 12, a peptide of SEQ ID NO: 17, a peptide of SEQ ID NO: 18, and a peptide of SEQ ID NO: 19. Doses of each peptide were varied—each of the peptides of SEQ ID NO: 12, 17, and 19 was administered at a dose of either 3 nmol/kg or 9 nmol/kg, while the peptide of SEQ ID NO: 18 was administered at a dose of 1 nmol/kg, 3 nmol/kg, or 9 nmol/kg. Data are expressed as mean±SEM.
In addition to cumulative body weight change, ambient glucose levels of the DIO mice were measured.

[2] = obese rhesus monkeys, daily dosing for 21 days: body weight and food intake
Method: The in vivo effects of a peptide of the invention were confirmed in obese rhesus monkeys by administering daily for 21 days a vehicle control, a commercially available product (Liraglutide), a peptide of SEQ ID NO: 20, or a peptide of SEQ ID NO: 17. […] Body weight and food intake were measured.

[3] = diabetic rhesus monkeys, 10 days treatment: body weight, fasting blood glucose, Meal Tolerance Test; conditions: 1 μg/kg s.c. for 10 days
Method: The in vivo effects of a peptide of the invention were tested in diabetic rhesus monkeys (n=7) that were aged 16-26 years and having an average body weight of […]. Diabetic rhesus monkeys (n=7) that were aged 16-26 years with an average body weight of […] were administered a vehicle control, Liraglutide at a dose of 10 μg/kg s.c. or a peptide of SEQ ID NO: 17 at a dose of 1 μg/kg s.c. for 10 days. At the end of each treatment, fasting blood glucose (FBG) was measured first followed by a Meal Tolerance Test (MTT) to assess glucose tolerance. […] Data are expressed in FIG. 4 as mean±SEM. *P<0.05 versus vehicle.

Compound	reduction in glucose levels compared to vehicle control mice ([1]; 3 nmol/kg, Day 7)	decrease in glucose levels compared to vehicle control mice ([1]; 3 nmol/kg, Day 9)	decrease in glucose levels compared to vehicle control mice ([1]; 9 nmol/kg, Day 4)	decrease in glucose levels compared to vehicle control mice ([1]; 9 nmol/kg, Day 7)	decrease in glucose levels compared to vehicle control mice ([1]; 9 nmol/kg, Day 9)	body weight following a one week wash-out ([2]; Day 28)	food intake, % change vs. baseline ([2]; daily s.c. for 21 days, Liraglutide 20 μg/kg, SEQ ID NO: 17 3 μg/kg)	glucose tolerance during Meal Tolerance Test (MTT) compared to vehicle [3]	decrease in ambient glucose vs. vehicle ([1]; 3 nmol/kg or 9 nmol/kg dose, by Day 4)
CCCCCCCCCCCCCCCC(=O)N[C@@H](CCC(=O)N[C@@H](CCC(=O)NCCCC[C@H](NC(=O)[C@H](CC(=O)O)NC(=O)[C@H](CO)NC(=O)[C@@H](NC(=O)[C@H](Cc1ccccc1)NC(=O)[C@@H](NC(=O)CNC(=O)[C@H](CCC(N)=O)NC(=O)C(C)(C)NC(=O)[C@@H](N)Cc1c[nH]cn1)[C@@H](C)O)[C@@H](C)O)C(=O)N[C@@H](CO)C(=O)N[C@@H](CCCCN)C(=O)N[C@@H](Cc1ccc(O)cc1)C(=O)N[C@@H](CC(C)C)C(=O)N[C@@H](CC(=O)O)C(=O)NC(C)(C)C(=O)N[C@@H](CCCNC(=N)N)C(=O)N[C@@H](C)C(=O)N[C@@H](C)C(=O)N[C@@H](CCC(N)=O)C(=O)N[C@@H](CC(=O)O)C(=O)N[C@@H](Cc1ccccc1)C(=O)N[C@H](C(=O)N[C@@H](CCC(N)=O)C(=O)N[C@@H](Cc1c[nH]c2ccccc12)C(=O)N[C@@H](CC(C)C)C(=O)N[C@@H](CCSC)C(=O)N[C@@H](CC(N)=O)C(=O)N[C@H](C(=O)N[C@@H](CCCCN)C(=O)N[C@@H](CCC(N)=O)C(=O)O)[C@@H](C)O)C(C)C)C(=O)O)C(=O)O [SEQ ID NO: 17] (H-H[Aib]QGTFTSDK([γGlu-γGlu-Palmitoyl])SKYLD[Aib]RAAQDFVQWLMNTKQ-OH; N-terminus assumed)	~28%	~19%	~48%	~48%	~45%	regained much of the weight that was lost	−25.7%±3.2	improved glucose tolerance	
SEQ ID NO: 18: peptide of SEQ ID NO: 18 of the sequence listing, tested in DIO mice; sequence not printed in the text (HXQGTFTSDKSKYLDERAAQDFVQWLMDT; (2)..(2) Xaa is AIB; (10)..(10) Acylated with a C16 fatty acyl group via gamma-Glu-gamma-Glu spacer; (29)..(29) C-terminal amidation)									−29%
SEQ ID NO: 19: peptide of SEQ ID NO: 19 of the sequence listing, tested in DIO mice; sequence not printed in the text (H[dS]QGTFTSDK([γGlu-Palmitoyl])SKYLDERAAQDFVQWLLDT-NH2; N-terminus assumed; SMILES CCCCCCCCCCCCCCCC(=O)N[C@@H](CCC(=O)NCCCC[C@H](NC(=O)[C@H](CC(=O)O)NC(=O)[C@H](CO)NC(=O)[C@@H](NC(=O)[C@H](Cc1ccccc1)NC(=O)[C@@H](NC(=O)CNC(=O)[C@H](CCC(N)=O)NC(=O)[C@@H](CO)NC(=O)[C@@H](N)Cc1c[nH]cn1)[C@@H](C)O)[C@@H](C)O)C(=O)N[C@@H](CO)C(=O)N[C@@H](CCCCN)C(=O)N[C@@H](Cc1ccc(O)cc1)C(=O)N[C@@H](CC(C)C)C(=O)N[C@@H](CC(=O)O)C(=O)N[C@@H](CCC(=O)O)C(=O)N[C@@H](CCCNC(=N)N)C(=O)N[C@@H](C)C(=O)N[C@@H](C)C(=O)N[C@@H](CCC(N)=O)C(=O)N[C@@H](CC(=O)O)C(=O)N[C@@H](Cc1ccccc1)C(=O)N[C@H](C(=O)N[C@@H](CCC(N)=O)C(=O)N[C@@H](Cc1c[nH]c2ccccc12)C(=O)N[C@@H](CC(C)C)C(=O)N[C@@H](CC(C)C)C(=O)N[C@@H](CC(=O)O)C(=O)N[C@H](C(N)=O)[C@@H](C)O)C(C)C)C(=O)O)			~40%	~39%	~26%				
